# Columns and labels:
# [1] = system: CHO 606 cells; test: Cell adhesion assay, CHO 606; type: cell-based; details: CHO 606, 6 μM
# Description: (A) and (B) show CHO-K1 (wild-type) cells incubated with 1% (v/v) DMSO (A) or 6 μM adhesamine (B). (C) and (D) show CHO 677 incubated with 1% (v/v) DMSO (A) or 6 μM adhesamine (B). […] Cells were seeded onto adhesamine-added or fibronectin-coated plastic wells. The concentrations of adhesamine and fibronectin were 6 μM and 5 μg/mL, respectively. Adhered cells were counted at 5 hours after seeding. Each point represents average±SD.
# For CHO wild-type and CHO mutant cell lines, 100 μL of trypsinized cell suspension in a culture medium was added to each well at a density of 2×10^5 cells/mL. After 5-hour incubation at 37° C., non-adhered cells were removed by washing each well with PBS twice, and the attached cells were counted with a Neubauer counting chamber (Digital Bio). To calculate adhesion rates, the cell numbers before washing were assigned a value of 100%. Each assay was conducted in triplicate, and the means and standard derivations were calculated for a minimum of three independent experiments.
# [2] = system: HepG2 cells; test: Cell growth assay (WST-8), HepG2; type: cell-based
# Description: (§1) In (A) and (B), the cell growth was determined at 24, 48, and 72 hours after the addition of adhesamine (1) (6 μM). The cell growth in the presence of 1% (v/v) DMSO was assigned a value of 100%. The data shown are means±SD for a minimum of three experiments. (C) to (F) show the rearrangement of actin filaments in HepG2 and Jurkat cells in the presence of adhesamine (6 μM). Brightfield images (C and D) and confocal images (E and F) are shown. HepG2 (C and E) or Jurkat (D and F) cells were plated for 5 hours or 3 hours, respectively, and actin cytoskeletal was visualized using rhodamine-labeled phalloidin.
# (§2) 1 μL DMSO solution of adhesamine (1) was added to 96-well plate at a concentration of 600 μM. […] After incubation for indicated time, the cell viability was measured using Cell Counting Kit-8 (Dojindo Molecular Technologies, Inc., Gaithersburg, Md.), which contains a tetrazolium salt (WST-8) that produces a water-soluble formazan dye by NADH dehydrogenases in living cells. […] The optical density (OD) of the solution was read by a microplate reader, using a test wavelength at 450 nm and a reference wavelength at 650 nm. […] Each assay was conducted in triplicate, and the means and standard derivations were calculated for a minimum of three independent experiments.
# [3] = system: Jurkat cells; test: Cell growth assay (WST-8), Jurkat; type: cell-based, human
# Description: as §1, §2
smiles,measurement,setting,value
CSc1nc(Cl)c(C=O)c(N2CC[N+]3(CC2)CC[N+]2(CCN(c4nc(SC)nc(Cl)c4C=O)CC2)CC3)n1 [adhesamine],response of cell adhesion to adhesamine,[1],less responsive
same,cytotoxicity,"[2]; HepG2, 6 μM",no obvious cytotoxicity
same,growth of the cells,"[2]; HepG2, 6 μM, 24, 48, 72 hours, vs 1% DMSO",slightly enhanced
same,cytotoxicity,[3]; 6 μM,no obvious cytotoxicity
same,growth of the cells,"[3]; 6 μM, 24, 48, 72 hours, vs 1% DMSO",slightly enhanced

# From patent publication US8685976B2, “Cell adhesion promoting agent and method of promoting cell adhesion” (Kyoto University, priority 2008, dated 2014)
